Assays:
[1] = Carrageenan-induced paw edema in the rat (anti-inflammatory activity); assay type: in vivo; details: 3 h, 10 mg/Kg, oral, female rats, read-out: % inhibition of increase in hind paw weight
Procedure: The anti-inflammatory activity of compounds of this invention was determined by measuring the inhibition of carrageenan-induced paw edema in the rat, using a modification of the method described in Winter C. k et al (1962) "Carrageenan-Induced Edema in Hind Paw of the Rat as an Assay for Anti-inflammatory Drugs". Proc. Soc. Exp. Biol. Med. 111: 544-547. This assay has been used as a primary in vivo screen for anti-inflammatory activity of most NSAIDs, and is considered predictive of human efficacy. Briefly, test materials were administered orally to female rats in a volume of 1 ml prepared as solutions or suspensions in an aqueous vehicle containing 0.9% NaCl, 0.5% sodium carboxymethyl-cellulose, 0.4% polysorbate 80, 0.9% benzyl alcohol and 97.3% distilled water. Control rats received vehicle alone. After 1 hr 0.05 ml of a 0.5% solution of Carrageenan (Type IV Lambda, Sigma Chemical Co.) in 0.9% saline was injected into the subplantar region of the right hind paw. Three hours later the rats were euthanized in a carbon dioxide atmosphere; hind paws were removed by severing at the tatso-crural joint; and the left and right paws were weighed. The increase in weight of the right paw over the left paw was obtained for each animal and the mean increases were calculated for each group. The anti-inflammatory activity of the test materials is expressed as the percent inhibition of the increase in hind paw weight of the test group relative to the vehicle-dosed control group.
The anti-inflammatory activities (expressed as % inhibition) of some of the compounds of the invention were: […]

COX II [2] = biological target: T1, COX II (Homo sapiens, UniProt P35354); experiment: Inhibition of COX II in vitro, partially purified enzyme, radiometric assay; assay type: biochemical; parameters: made in house; details: 20 micromolar arachidonic acid
T1 sequence (P35354 18-604): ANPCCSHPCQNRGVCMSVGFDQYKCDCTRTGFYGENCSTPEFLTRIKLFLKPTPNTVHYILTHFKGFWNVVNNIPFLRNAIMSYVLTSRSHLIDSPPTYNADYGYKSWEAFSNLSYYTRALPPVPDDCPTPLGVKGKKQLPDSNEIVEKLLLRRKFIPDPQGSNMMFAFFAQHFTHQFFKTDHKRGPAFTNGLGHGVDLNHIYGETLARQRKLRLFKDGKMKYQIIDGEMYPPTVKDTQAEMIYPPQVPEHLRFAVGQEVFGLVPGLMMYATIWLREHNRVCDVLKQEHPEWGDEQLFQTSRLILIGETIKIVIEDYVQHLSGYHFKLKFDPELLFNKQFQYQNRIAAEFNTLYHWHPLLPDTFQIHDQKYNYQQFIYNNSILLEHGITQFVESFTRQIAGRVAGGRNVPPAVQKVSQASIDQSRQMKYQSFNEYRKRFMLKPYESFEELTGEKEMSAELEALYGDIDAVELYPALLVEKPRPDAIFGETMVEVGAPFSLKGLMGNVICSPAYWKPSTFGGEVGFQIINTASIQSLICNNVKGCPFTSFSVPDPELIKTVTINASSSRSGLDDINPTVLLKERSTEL
Procedure: The COX I and COX II inhibitory activity of compounds of this invention in vitro was determined using partially purified COX I and COX II enzymes, prepared as described in J. Barnett et al, Biochim. Biophys.
COX I and COX II samples were diluted with Tris-HCl buffer (50 mM Tris-HCl, pH 7.9) containing 2 mM EDTA and 10% glycerol and reconstituted by incubating first with 2 mM phenol for 5 minutes and then with 1 micromolar hematin for an additional 5 minutes. 125 μl of the reconstituted COX I or COX II enzyme were preincubated for 10 minutes at room temperature in a shaking water bath with the compounds of the invention dissolved in 2-15 μl of DMSO or the carrier vehicles (control samples). The enzyme reaction was initiated by adding 25 μl of 1-[14C]arachidonic acid (80,000-100,000 cpm/tube; 20 micromolar final concentration) and the reaction was allowed to continue for an additional 45 seconds. The reaction was terminated by adding 100 μl of 2N HCl and 750 μl water. An aliquot (950 μl) of the reaction mixture was loaded onto a 1 ml C18 Sep-Pak column (J. T. Baker, Phillipsburg, N.J.) which had been previously washed with 2-3 ml methanol and equilibrated with 5-6 ml distilled water. Oxygenated products were quantitatively eluted with 3 ml of acetonitrile/water/acetic acid (50:50:0.1, v/v) and the radioactivity in the eluate determined in a scintillation counter.

COX II [3] = biological target: T1, COX II; experiment: Inhibition of COX II in a cell based assay (human foreskin fibroblasts, PGE2 ELISA); parameters: host or cells: primary human foreskin fibroblasts (HFF), induced with PMA and human interleukin-1; details: human foreskin fibroblasts (HFF)
Procedure: The COX I and COX II inhibitory activity of compounds of this invention in a cell based assay was determined as described below.
The inhibitory activity of test compounds against cell associated COX-2 was measured using primary cultures of human foreskin fibroblasts (HFF). HFF cultures were obtained from ATCC, grown in DMEM medium (Gibco) and used between 13-30 passages. Cells were plated in 96-well microtiter plates at a density of 6-8×10^4 cells/well in DMEM containing 10% fetal calf serum (Sigma) and cultured at 37° C. until they became confluent. The medium was removed and the cells were washed once with PBS. COX-2 activity was induced by incubating the cells with fresh DMEM containing 0.1 μM phorbol 12-myristate 13-acetate (PMA, Sigma) and 1ng/ml of human interleukin-1 (Sigma) at 37° C. After 16 h the medium was removed and the cells were washed twice with phosphate buffered saline (PBS, Gibco). 200 μl/well of fresh medium containing desired concentrations of the test compounds in DMSO, or the carrier vehicle (control wells) was added and the cells incubated at 37° C. for 30 minutes; after which 5 μM calcium ionophore A23187 (Sigma) was added and the incubation was continued for an additional 10 minutes. The reaction was terminated by transferring the plates to ice. The culture supernatants were transferred and appropriately diluted, and the amount of prostaglandin E2 (PGE2) present in each supernatant was quantitated using an ELISA kit (Cayman Chemicals).
The COX I and COX II inhibitory activities in the cell based assay (expressed as IC50) of some compounds of the invention were: […]

## COc1ccc(C(=O)c2cccc(Cc3ccc(=O)[nH]n3)c2C)cc1 [Cpd 11, 6-[3-(4-methoxybenzoyl)-2-methylbenzyl]-2H-pyridazin-3-one]
[1]
  inhibition in vivo at 10 mg/kg: 44%
COX II [2]
  IC50: 1800 nM
COX II [3]
  IC50: 2000 nM
